Data on 25 compounds can be found in ChEMBL document CHEMBL5726876, “NHE3-binding compounds and methods for inhibiting phosphate transport” (2019).

As usually defined, the IC50 is the midpoint of a concentration-inhibition curve.

SMILES strings stand for the structures. A value given as a limit tells only on which side of the number the result lay.

The nature of the assay: Cell-based activity under Prompt Conditions: Cell-based activity under Prompt Conditions. Rat or human NHE3-mediated Na+-dependent H+ antiport was measured using a modification of the pH sensitive dye method originally reported by Paradiso (PNAS USA. 81:7436-7440, 1984). Opossum kidney (OK) cells were obtained from the ATCC and propagated per their instructions. The rat NHE3 gene (GenBank M85300) or the human NHE3 gene (GenBank NM_004174.1) was introduced into OK cells via electroporation, and cells were seeded into 96 well plates and grown overnight. Medium was aspirated from the wells, cells were washed twice with NaCl-HEPES buffer (100 mM NaCl, 50 mM HEPES, 10 mM glucose, 5 mM KCl, 2 mM CaCl2, 1 mM MgCl2, pH 7.4), then incubated for 30 min at room temperature with NH4Cl-HEPES buffer (20 mM NH4Cl, 80 mM NaCl, 50 mM HEPES, 5 mM KCl, 2 mM CaCl2, 1 mM MgCl2, pH 7.4) containing 5 μM bis(acetoxymethyl) 3,3′-(3′,6′-bis(acetoxymethoxy)-5-((acetoxymethoxy)carbonyl)-3-oxo-3H-spiro[isobenzofuran-1,9′-xanthene]-2′,7′-diyl)dipropanoate (BCECF-AM).Cells were washed twice with Ammonium free, Na+-free HEPES (100 mM choline, 50 mM HEPES, 10 mM glucose, 5 mM KCl, 2 mM CaCl2, 1 mM MgCl2, pH 7.4) and incubated in the same buffer for 10 minutes at room temperature to lower intracellular pH. […] Initial rates were plotted as the average 2 or more replicates, and pIC50 values were estimated using GraphPad Prism.
Take `C/C(=C\c1cc(F)c(Oc2ccc(S(=O)(=O)NCCOCCOCCOCCNC(=O)COCC(=O)NCCOCCOCCOCCNS(=O)(=O)c3ccc(Oc4c(F)cc(/C=C(\C)C(=O)N=C(N)N)cc4F)cc3)cc2)c(F)c1)C(=O)N=C(N)N`: the IC50 was 0.0501 µM. For `CN1Cc2c(Cl)cc(Cl)cc2[C@H](c2cccc(S(=O)(=O)NCCOCCOCCNC(=O)CCC(CCC(=O)NCCOCCOCCNS(=O)(=O)c3cccc([C@@H]4CN(C)Cc5c(Cl)cc(Cl)cc54)c3)(CCC(=O)NCCOCCOCCNS(=O)(=O)c3cccc([C@@H]4CN(C)Cc5c(Cl)cc(Cl)cc54)c3)NCc3ccc(-c4ccc(Cl)cc4)cc3)c2)C1`, the IC50 is under 10 µM. With `CNC(=O)CN(CCN(CC(=O)O)CC(=O)NCCOCCOCCNC(=O)NCCOCCOCCOCCOc1cccc(-c2nc(NC(=N)N)nc3ccc(Cl)cc23)c1)CC(=O)O` the figure was 0.02 µM; with `CN1Cc2c(Cl)cc(Cl)cc2[C@H](c2cccc(S(=O)(=O)NCCOCCOCCNC(=O)CCC(CCC(=O)NCCOCCOCCNS(=O)(=O)c3cccc([C@@H]4CN(C)Cc5c(Cl)cc(Cl)cc54)c3)(CCC(=O)NCCOCCOCCNS(=O)(=O)c3cccc([C@@H]4CN(C)Cc5c(Cl)cc(Cl)cc54)c3)NC(=O)N(C)C[C@H](O)[C@@H](O)[C@H](O)[C@H](O)CO)c2)C1`, 0.00794 µM.

`CN(C)[C@H]1Cc2c(Cl)cc(Cl)cc2[C@@H]1Oc1ccc(S(=O)(=O)NCCOCCOCCNC(=O)COCC(=O)NCCOCCOCCNS(=O)(=O)c2ccc(O[C@H]3c4cc(Cl)cc(Cl)c4C[C@@H]3N(C)C)cc2)cc1`: the IC50 is 0.00794 µM. With `CN1Cc2c(Cl)cc(Cl)cc2[C@H](c2cccc(S(=O)(=O)NCCOCCOCCNC(=O)CCC(N)(CCC(=O)NCCOCCOCCNS(=O)(=O)c3cccc([C@@H]4CN(C)Cc5c(Cl)cc(Cl)cc54)c3)CCC(=O)NCCOCCOCCNS(=O)(=O)c3cccc([C@@H]4CN(C)Cc5c(Cl)cc(Cl)cc54)c3)c2)C1` the figure was 0.0851 µM; with `CCCCCCCCOCCOCCOCCOCCOCCOC(=O)NCCOCCOCCOCCNS(=O)(=O)c1cccc([C@@H]2CN(C)Cc3c(Cl)cc(Cl)cc32)c1`, 0.251 µM. With `COCCNC(=O)CN(C)CC(=O)NCCOCCOCCNC(=O)NCCOCCOCCOCCN1CCN(c2cccc(-c3nc(NC(=N)N)nc4ccc(Cl)cc34)c2)CC1` the figure was 0.02 µM; with `CN1Cc2c(Cl)cc(Cl)cc2[C@H](c2cccc(S(=O)(=O)NCCOCCOCCNC(=O)NCCCN(CCCNC(=O)NCCOCCOCCNS(=O)(=O)c3cccc([C@@H]4CN(C)Cc5c(Cl)cc(Cl)cc54)c3)CCCNC(=O)NCCOCCOCCNS(=O)(=O)c3cccc([C@@H]4CN(C)Cc5c(Cl)cc(Cl)cc54)c3)c2)C1`, 0.562 µM; with `C/C(=C\c1cc(F)c(Oc2ccc(S(=O)(=O)NCCOCCOCCOCCNC(=O)N(C)CCCCN(C)C(=O)NCCOCCOCCOCCNS(=O)(=O)c3ccc(Oc4c(F)cc(/C=C(\C)C(=O)N=C(N)N)cc4F)cc3)cc2)c(F)c1)C(=O)N=C(N)N`, 0.0158 µM. With `CCCCCCCCCCC(=O)NC(CCC(=O)NCCOCCOCCNS(=O)(=O)c1cccc([C@@H]2CN(C)Cc3c(Cl)cc(Cl)cc32)c1)(CCC(=O)NCCOCCOCCNS(=O)(=O)c1cccc([C@@H]2CN(C)Cc3c(Cl)cc(Cl)cc32)c1)CCC(=O)NCCOCCOCCNS(=O)(=O)c1cccc([C@@H]2CN(C)Cc3c(Cl)cc(Cl)cc32)c1` the figure was under 10 µM; with `CN1Cc2c(Cl)cc(Cl)cc2[C@H](c2cccc(S(=O)(=O)NCCOCCOCCNC(=O)Nc3ccc(NC(=O)NCCOCCOCCNS(=O)(=O)c4cccc([C@@H]5CN(C)Cc6c(Cl)cc(Cl)cc65)c4)cc3)c2)C1`, 0.00251 µM.

For the compound `CN1Cc2c(Cl)cc(Cl)cc2[C@H](c2cccc(S(=O)(=O)NCCOCCOCCOCCNC(=O)NCCN3CCN(c4nc(N5CCN(CCNC(=O)NCCOCCOCCOCCNS(=O)(=O)c6cccc([C@@H]7CN(C)Cc8c(Cl)cc(Cl)cc87)c6)CC5)nc(N5CCN(CCNC(=O)NCCOCCOCCOCCNS(=O)(=O)c6cccc([C@@H]7CN(C)Cc8c(Cl)cc(Cl)cc87)c6)CC5)n4)CC3)c2)C1`, the IC50 is 0.2 µM. With `O=C(NCCCCNC(=O)NCCOCCOCCNS(=O)(=O)c1ccc(O[C@H]2c3cc(Cl)cc(Cl)c3C[C@@H]2N2CC[C@@H](O)C2)cc1)NCCOCCOCCNS(=O)(=O)c1ccc(O[C@H]2c3cc(Cl)cc(Cl)c3C[C@@H]2N2CC[C@@H](O)C2)cc1` the figure was under 10 µM.

As for `CN1Cc2c(Cl)cc(Cl)cc2[C@H](c2cccc(S(=O)(=O)NCCOCCOCCNC(=O)CC(O)(CC(=O)NCCOCCOCCNS(=O)(=O)c3cccc([C@@H]4CN(C)Cc5c(Cl)cc(Cl)cc54)c3)C(=O)NCCOCCOCCNS(=O)(=O)c3cccc([C@@H]4CN(C)Cc5c(Cl)cc(Cl)cc54)c3)c2)C1`, the IC50 was 1 µM.

With `CCOCCOCCOCCNC(=O)NCCCCNC(=O)NCCOCCOCCOCCNS(=O)(=O)c1ccc(O[C@H]2c3ccccc3C[C@@H]2N2CCCCC2)cc1`, the IC50 is 0.0398 µM.

For the compound `NC(N)=Nc1nc(-c2ccc(N3CCN(CCOCCOCCNC(=O)[C@H](O)[C@@H](O)C(=O)NCCOCCOCCN4CCN(c5ccc(-c6nc(N=C(N)N)nc7ccc(Cl)cc67)cc5)CC4)CC3)cc2)c2cc(Cl)ccc2n1`, the IC50 is 0.0794 µM. Turning to `CCNC(=O)CN(C)CC(=O)NCCOCCOCCOCCNS(=O)(=O)c1ccc(Oc2c(F)cc(/C=C(\C)C(=O)N=C(N)N)cc2F)cc1`, the IC50 was 0.316 µM. For `CN(CCN(CC(=O)O)CC(=O)NCCOCCOCCNC(=O)NCCOCCOCCOCCN1CCN(c2ccc(-c3nc(N=C(N)N)nc4ccc(Cl)cc34)cc2)CC1)CC(=O)O`, the concentration for half-maximal inhibition (IC50) is 0.0158 µM. With `CN1Cc2c(Cl)cc(Cl)cc2[C@H](c2cccc(S(=O)(=O)NCCOCCOCCOCCNC(=O)CC(CC(=O)NCCOCCOCCOCCNS(=O)(=O)c3cccc([C@@H]4CN(C)Cc5c(Cl)cc(Cl)cc54)c3)C(=O)NCCOCCOCCOCCNS(=O)(=O)c3cccc([C@@H]4CN(C)Cc5c(Cl)cc(Cl)cc54)c3)c2)C1` the figure was 0.0316 µM. With `CNC(=O)NC(CCC(=O)NCCOCCOCCNS(=O)(=O)c1cccc([C@@H]2CN(C)Cc3c(Cl)cc(Cl)cc32)c1)(CCC(=O)NCCOCCOCCNS(=O)(=O)c1cccc([C@@H]2CN(C)Cc3c(Cl)cc(Cl)cc32)c1)CCC(=O)NCCOCCOCCNS(=O)(=O)c1cccc([C@@H]2CN(C)Cc3c(Cl)cc(Cl)cc32)c1` the figure was 0.794 µM; with `O=C(NCCCCNC(=O)NCCOCCOCCNS(=O)(=O)c1ccc(O[C@H]2c3cc(Cl)cc(F)c3C[C@@H]2N2CC[C@@H](O)C2)cc1)NCCOCCOCCNS(=O)(=O)c1ccc(O[C@H]2c3cc(Cl)cc(F)c3C[C@@H]2N2CC[C@@H](O)C2)cc1`, under 10 µM. With `CN1Cc2c(Cl)cc(Cl)cc2[C@H](c2cccc(S(=O)(=O)NCCOCCOCCNC(=O)CCC(CCC(=O)NCCOCCOCCNS(=O)(=O)c3cccc([C@@H]4CN(C)Cc5c(Cl)cc(Cl)cc54)c3)(CCC(=O)NCCOCCOCCNS(=O)(=O)c3cccc([C@@H]4CN(C)Cc5c(Cl)cc(Cl)cc54)c3)NS(C)(=O)=O)c2)C1` the figure was 0.631 µM. Turning to `CCC(=O)NC(CCC(=O)NCCOCCOCCOCCNS(=O)(=O)c1cccc([C@@H]2CN(C)Cc3c(Cl)cc(Cl)cc32)c1)(CCC(=O)NCCOCCOCCOCCNS(=O)(=O)c1cccc([C@@H]2CN(C)Cc3c(Cl)cc(Cl)cc32)c1)CCC(=O)NCCOCCOCCOCCNS(=O)(=O)c1cccc([C@@H]2CN(C)Cc3c(Cl)cc(Cl)cc32)c1`, the IC50 was 0.0794 µM. On to `CN1Cc2c(Cl)cc(Cl)cc2[C@H](c2cccc(S(=O)(=O)NCCOCCOCCNC(=O)CCC(CCC(=O)NCCOCCOCCNS(=O)(=O)c3cccc([C@@H]4CN(C)Cc5c(Cl)cc(Cl)cc54)c3)(CCC(=O)NCCOCCOCCNS(=O)(=O)c3cccc([C@@H]4CN(C)Cc5c(Cl)cc(Cl)cc54)c3)NC(=O)Cc3nnn[nH]3)c2)C1`, for which the IC50 is 0.2 µM.
